One assay deals with THP-1 cells. The assay can be described thus: TNFalpha ELISA in LPS-treated THP-1 cells. It is filed as cell-based, human. The following applies: 10 µM, LPS for 5 hours. The procedure:
THP-1 cells were seeded in a 24-well plate (1.2 x 10^6 cells/well) in a volume of 0.4 mL. Cells were treated with 10 µM NP 9 or DMSO (VC). After 1 h, 10 ng/mL LPS (Sigma, cat.no. L5293) were added and incubated for another 5 h. Medium was separated from the cells by centrifugation and used for detection of TNFalpha release by a human TNF alpha ELISA Kit [V. M. Nayagam et al. J Biomol Screen (2006), 11, 959-967].

The target of assay [1] is T1, p300 (Homo sapiens, UniProt Q09472).
T1 construct: purchased Biomol International, Inc. / Enzo Life Sciences
Nature of the assay: radioactivity based assay (Reaction Biology Corp.). It counts as biochemical. From the text:
IC50 for NP 9 was also validated by a radioactivity based assay, and performed by Reaction Biology Corp. (RBC).

For assay [2], the target named is T1, p300. The assay can be described thus: MALDI-TOF MS acetylation assay. It is filed as biochemical. The procedure: Reactions were started by adding 0.5 µM HAT peptide and 120 µM AcCoA and incubated for 60 min at 30°C. After incubation at 30°C for up to 60 min, reactions were stopped by formic acid (f.c. 2%). Reaction buffer consisted of 50 mM HEPES (pH 7.9), 0.1 mM EDTA and 50 µg/mL BSA.
(§1) Acetylated and deacetylated peptides were mixed at different ratios in the respective buffer including stop solution and reaction components except the enzyme. Purification, preparation and MS detection were conducted in parallel to reaction samples. CCs were generated for IC50 value determination but not for the screening.
(§2) Peptides were purified by Oasis HLB µElution Plates using a vacuum manifold [S. Sauer et al. J Chromatogr A (2004), 1049, 9-16]. Plate columns were conditioned by 70% ACN and equilibrated with 0.1% TFA. Samples were loaded, desalted by 0.1 % TFA and H2O and eluted in 70% ACN.
(§3) For ultra thin layer (UTL), supernatant of saturated CHCA in ACN / H2O (2:1) and 0.1% TFA. was mixed with isopropanol (1:3) and was spread on a ground steel target. After solvent evaporated excess of CHCA was removed from target surface with a tissue [D. Fenyo et al. J Vis Exp (2007), 192]. The matrix used for sample preparation contained saturated CHCA in ACN / 0.1% TFA (1:2) or ACN / H2O (1:2) depending on peptide size [S. L. Cohen et al. Anal Chem (1996), 68, 31-37]. HLB eluted samples and matrix were mixed (1:4) and spotted on the UTL.
(§4) Samples were measured automatically (AutoXecute software, Bruker Daltonik GmbH) using an ultraflex II MALDI-TOF mass spectrometer (Bruker Daltonik GmbH) in positive ion reflector mode. Laser power and detector gain were adjusted prior to every automatic run, which were performed in random walk movement.
(§5) For assay optimization and IC50 determination, 1000 shots were accumulated in 100 satisfactory shot steps (fuzzy control). At least one peak within a defined mass range had to fulfill the following criteria for the spectra to be accumulated: Absolute (min.) intensity: 800; S/N: 15; peak width: 0.2.
(§6) A script (Bruker Daltonik GmbH) was employed to analyze peptide peaks in a batch process (flexAnalysis software, Version 3.0, Bruker Daltonik GmbH). Percentage of de-/acetylation were calculated using the sum of the first four monoisotopic peak intensities. CC was generated by plotting experimental vs. calculated peptide acetylation. Measured sample values were interpolated with CC to determine de-/acetylation values (GraphPad Prism). When no CC was created, peak intensity ratios were generated. Verified single NP screening hits had to pass a peak ratio of ≤ 0.1 (deac/ac).
(§7) As IC50 values were not gained at initial velocity conditions, values were corrected by a conversion factor according to Wu et al. (Table 5) [G. Wu et al. J Biomol Screen (2003), 8, 694-700].

For the next assay, the target named is T2, SIRT1 (Homo sapiens, UniProt Q96EB6).
T2 construct: purchased Biomol International, Inc. / Enzo Life Sciences / BlueSky BioTech
T2 sequence (Q96EB6 1-747): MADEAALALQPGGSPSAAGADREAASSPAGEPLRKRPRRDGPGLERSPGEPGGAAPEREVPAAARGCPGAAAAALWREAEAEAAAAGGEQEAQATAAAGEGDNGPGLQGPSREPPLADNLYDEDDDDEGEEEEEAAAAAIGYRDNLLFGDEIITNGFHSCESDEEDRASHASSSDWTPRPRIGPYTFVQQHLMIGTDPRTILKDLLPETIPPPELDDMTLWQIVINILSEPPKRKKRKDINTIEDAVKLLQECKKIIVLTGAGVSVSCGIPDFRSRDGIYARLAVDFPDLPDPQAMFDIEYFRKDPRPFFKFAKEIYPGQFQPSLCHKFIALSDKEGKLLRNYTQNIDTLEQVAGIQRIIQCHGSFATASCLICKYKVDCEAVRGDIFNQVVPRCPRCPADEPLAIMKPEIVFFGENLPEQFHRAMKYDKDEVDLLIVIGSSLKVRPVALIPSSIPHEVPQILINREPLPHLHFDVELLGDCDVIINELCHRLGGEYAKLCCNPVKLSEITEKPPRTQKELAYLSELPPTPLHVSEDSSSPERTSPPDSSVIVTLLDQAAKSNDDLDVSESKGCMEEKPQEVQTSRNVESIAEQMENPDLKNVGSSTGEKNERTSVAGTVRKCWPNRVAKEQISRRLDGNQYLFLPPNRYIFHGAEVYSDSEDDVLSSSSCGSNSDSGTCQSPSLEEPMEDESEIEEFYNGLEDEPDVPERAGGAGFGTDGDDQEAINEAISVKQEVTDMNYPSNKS
Nature of the assay: MALDI-TOF MS deacetylation assay. It is filed as biochemical. How it is done: The assay was performed in a 20 µL reaction. 0.5 µM acetylated peptide and 120 µM NAD^+ in reaction buffer (50 mM Tris-acetate (pH 8), 137 mM NaCl, 2.7 mM KCI, 1 mM MgCl2, 5 mM DTT, 0.05 % BSA) were mixed with compound or DMSO (VC). Reactions were initiated by adding 10 nM of SIRT1. After incubation for 30 min at 37°C, reactions were stopped by formic acid and nicotinamide (f.c. 1% and 5 mM, respectively). Reactions were performed with histone H4 peptide and 1% DMSO unless stated otherwise. […]
as §1, §2, §3, §4, §5, §6, §7

The target in assay [3] is T1, p300. The note with it: literature (Balasubramanyam et al.); cited from earlier work.
Assay [4] addresses T3, LXRα ligand binding domain (LBD) (Homo sapiens, UniProt Q13133).
T3 construct: expressed in transfected cells; host or cells: HEK-293
T3 sequence (Q13133 164-447): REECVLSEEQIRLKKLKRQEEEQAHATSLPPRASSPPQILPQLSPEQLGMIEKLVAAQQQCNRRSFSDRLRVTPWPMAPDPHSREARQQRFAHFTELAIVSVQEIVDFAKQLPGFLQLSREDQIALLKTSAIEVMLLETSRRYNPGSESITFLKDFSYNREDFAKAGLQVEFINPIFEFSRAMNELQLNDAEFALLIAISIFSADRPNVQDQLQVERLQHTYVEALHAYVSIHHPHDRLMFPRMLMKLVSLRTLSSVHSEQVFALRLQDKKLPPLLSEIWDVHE
The assay can be described thus: dual luciferase reporter gene assay with LXRα ligand binding domain in HEK-293 cells. The following applies: +DMSO. It is filed as cell-based. How it is done: The ligand binding domain (LBD) of LXRα (amino acids 164 to 447) or LXRβ (amino acids 154 to 461) was cloned into pBIND [Renilla/Amp] vector (Promega). Selection and amplification were performed in E-coli cells. Purification of the plasmids was performed with a plasmid purification kit (Qiagen). For transfection HEK-293 cells were plated in 96-well plates (TPP) at a density of 3.5 x 10^4 cells/well for 24 h. To investigate the ligand binding on LXRα ligand binding domain, 0.04 ng of renilla luciferase coding plasmide pGL4.75 (Promega), 0.04 ng of LXRα-LBD/GAL4-DBD plasmide and 80 ng of firefly luciferase coding plasmide pGL4.31 (Promega) were used in a total volume of 200 µL for each well. In LXRβ binding assay 40 ng of LXRβ-LBD/GAL4-DBD plasmide were applied in each transfection mix. Transfection was carried out for 4 h with Lipofectamine 2000 Transfection Reagent (Invitrogen) in Opti-MEM medium (Invitrogen). Ligand treatment was performed at different concentrations for 24 h. For lysis and detection dual-luciferase reporter gene assay system (Promega) and POLARstar Omega (BMG LABTECH) were used.

The mark [5] stands for this setting: corrected by conversion factor according to Wu et al., read-out: Corrected IC50.
The mark [6] stands for this setting: uncorrected, not at initial velocity conditions, read-out: Obtained IC50'.
Where [7] appears, read: Table 3, corrected values (see Table 5), read-out: IC50 values.

We go through 7 molecules from patent EP2759295A1, “Foam cell specific Liver X Receptor (LXR) alpha agonist, SIRT1 inhibitors as well as p300 inhibitors as pharmaceutically active agents” (Max-Planck-Gesellschaft zur Förderung der Wissenschaften …, priority 2013, dated 2014).

Read-outs that look alike come from different tables or passages of the source.

T1 sequence (Q09472 whole entry, species assumed): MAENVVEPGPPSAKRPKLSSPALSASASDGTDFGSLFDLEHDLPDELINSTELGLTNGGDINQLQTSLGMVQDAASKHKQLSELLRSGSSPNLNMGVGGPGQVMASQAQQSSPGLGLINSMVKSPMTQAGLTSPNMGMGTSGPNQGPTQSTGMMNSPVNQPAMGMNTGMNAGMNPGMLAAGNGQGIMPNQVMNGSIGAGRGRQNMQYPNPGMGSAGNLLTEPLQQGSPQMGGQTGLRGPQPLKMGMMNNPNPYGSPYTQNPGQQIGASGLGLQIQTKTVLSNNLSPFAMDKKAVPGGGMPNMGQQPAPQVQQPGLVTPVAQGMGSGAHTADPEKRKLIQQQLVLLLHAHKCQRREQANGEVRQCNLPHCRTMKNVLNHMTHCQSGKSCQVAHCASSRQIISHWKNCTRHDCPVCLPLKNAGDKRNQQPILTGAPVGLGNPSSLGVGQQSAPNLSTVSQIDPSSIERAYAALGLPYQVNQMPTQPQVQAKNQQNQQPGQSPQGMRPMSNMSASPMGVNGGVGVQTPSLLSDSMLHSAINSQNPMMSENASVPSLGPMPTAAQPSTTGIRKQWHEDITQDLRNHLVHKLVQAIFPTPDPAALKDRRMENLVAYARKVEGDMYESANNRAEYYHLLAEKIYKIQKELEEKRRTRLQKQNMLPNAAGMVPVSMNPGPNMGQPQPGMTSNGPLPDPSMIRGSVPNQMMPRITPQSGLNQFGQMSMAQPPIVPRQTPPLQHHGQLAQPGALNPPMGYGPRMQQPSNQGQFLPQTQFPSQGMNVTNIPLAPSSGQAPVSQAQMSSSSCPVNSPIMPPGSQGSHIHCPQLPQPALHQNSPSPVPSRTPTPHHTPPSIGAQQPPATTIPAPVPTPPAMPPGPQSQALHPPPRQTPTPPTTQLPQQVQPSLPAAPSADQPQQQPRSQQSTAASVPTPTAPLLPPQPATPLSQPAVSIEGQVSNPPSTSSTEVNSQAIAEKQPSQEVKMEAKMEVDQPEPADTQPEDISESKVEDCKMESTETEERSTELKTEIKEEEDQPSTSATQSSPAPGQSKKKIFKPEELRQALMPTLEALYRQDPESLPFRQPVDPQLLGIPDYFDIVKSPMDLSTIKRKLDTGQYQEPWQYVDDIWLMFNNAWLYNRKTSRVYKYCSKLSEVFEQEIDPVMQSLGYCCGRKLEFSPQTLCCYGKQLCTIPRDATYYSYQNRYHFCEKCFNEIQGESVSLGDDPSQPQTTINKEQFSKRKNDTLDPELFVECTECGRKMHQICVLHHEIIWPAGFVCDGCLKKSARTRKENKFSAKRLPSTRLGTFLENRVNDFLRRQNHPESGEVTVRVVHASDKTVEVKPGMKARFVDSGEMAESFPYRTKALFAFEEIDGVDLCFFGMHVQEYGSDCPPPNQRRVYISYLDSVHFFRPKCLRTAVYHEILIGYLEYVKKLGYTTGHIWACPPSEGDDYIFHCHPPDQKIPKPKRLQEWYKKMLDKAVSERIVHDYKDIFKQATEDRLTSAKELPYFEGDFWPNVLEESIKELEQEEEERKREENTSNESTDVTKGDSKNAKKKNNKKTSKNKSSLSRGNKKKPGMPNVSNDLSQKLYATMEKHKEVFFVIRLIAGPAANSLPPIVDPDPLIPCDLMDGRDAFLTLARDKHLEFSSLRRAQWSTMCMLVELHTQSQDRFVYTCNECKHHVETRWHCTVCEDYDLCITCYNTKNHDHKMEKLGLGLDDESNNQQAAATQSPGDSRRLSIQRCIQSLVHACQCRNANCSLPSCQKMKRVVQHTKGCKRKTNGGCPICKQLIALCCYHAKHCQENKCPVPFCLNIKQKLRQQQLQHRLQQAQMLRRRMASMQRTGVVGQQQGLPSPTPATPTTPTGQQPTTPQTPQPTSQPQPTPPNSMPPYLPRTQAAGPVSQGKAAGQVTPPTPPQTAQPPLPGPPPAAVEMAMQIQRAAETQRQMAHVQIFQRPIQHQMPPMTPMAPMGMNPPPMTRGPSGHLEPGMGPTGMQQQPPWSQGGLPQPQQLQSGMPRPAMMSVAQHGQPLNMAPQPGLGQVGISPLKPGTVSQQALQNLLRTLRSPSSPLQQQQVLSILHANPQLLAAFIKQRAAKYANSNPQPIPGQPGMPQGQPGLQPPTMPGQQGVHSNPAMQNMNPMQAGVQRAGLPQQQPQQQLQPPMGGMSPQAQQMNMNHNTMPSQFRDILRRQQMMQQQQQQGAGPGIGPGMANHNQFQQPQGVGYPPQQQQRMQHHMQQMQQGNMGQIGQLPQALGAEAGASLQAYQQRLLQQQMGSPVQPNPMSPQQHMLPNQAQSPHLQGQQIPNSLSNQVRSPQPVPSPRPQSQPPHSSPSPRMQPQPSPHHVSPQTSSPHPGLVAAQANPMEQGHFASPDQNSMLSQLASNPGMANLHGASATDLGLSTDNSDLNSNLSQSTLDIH

In the case of `CC(C)=CCc1c(O)cc(O)c2c(=O)c(O)c(-c3ccc(O)c(O)c3)oc12` [NP 9, 2-(3,4-dihydroxyphenyl)-3,5,7-trihydroxy-8-(3-methylbut-2-enyl)-4H-chromen-4-one], in the assay on THP-1 cells, the “levels of TNFα secreted” value is “significant anti-inflammatory effects by reducing the levels of TNFα”. Moreover, the IC50 at p300 [1] is 2.1 µM; on p300 [2] (MALDI MS assay, read-out: IC50 value), 1.71 µM; on p300 [2] (setting [5]), 1.71 ± 0.07 µM; at p300 [2] (setting [6]), 2.35 ± 0.09 µM. In addition, the “times stronger than anacardic acid” value on p300 [2] (p300 IC50 comparison) is listed as “about 4 times”. Further, at p300 [2] (p300 IC50 comparison), the “times stronger than garcinol” value was “about 3.5 times”.
For the molecule `COc1c(-c2c(O)cc(O)c3c(=O)cc(-c4ccc(O)cc4)oc23)c(O)cc2oc(-c3ccc(O)cc3)cc(=O)c12` [NP 2, 5',7,7'-trihydroxy-2,2'-bis(4-hydroxyphenyl)-5-methoxy-6,8'-bi(4H-chromene)-4,4'-dione], the IC50 at SIRT1 (setting [7]) is 28 ± 9 µM; on SIRT1 (setting [5]), 28 ± 9 µM; on SIRT1 (setting [6]), 39 ± 13 µM.
With `O=C1CC(c2ccccc2)Oc2c(Cc3cccc(O)c3O)c(O)c(Cc3cccc(O)c3O)c(O)c21` (stereo not shown) [NP 4, 6,8-bis(2,3-dihydroxybenzyl)-5,7-dihydroxy-2-phenylchroman-4-one], the results for the IC50 at SIRT1 (setting [7]), at SIRT1 (setting [5]) and on SIRT1 (setting [6]) were 46 ± 4 µM, 46 ± 4 µM and 63 ± 5 µM, respectively.
Turning to `O=c1cc(-c2ccc(O)c(-c3c(O)cc(O)c4c(=O)cc(-c5ccc(O)cc5)oc34)c2)oc2cc(O)cc(O)c12` [NP 3, 8-(5-(5,7-dihydroxy-4-oxo-4H-chromen-2-yl)-2-hydroxyphenyl)-5,7-dihydroxy-2-(4-hydroxyphenyl)-4H-chromen-4-one], the IC50 amounted to 36 ± 6 µM on SIRT1 (setting [7]), 36 ± 6 µM at SIRT1 (setting [5]) and 50 ± 8 µM at SIRT1 (setting [6]).
As to `CCCCCCCCCCCCCCCc1cccc(O)c1C(=O)O` [anacardic acid], on p300 [3], the IC50 was 8.5 µM.
Consider `COC1C(OC(N)=O)C(O)C(Oc2ccc(-c3coc4cc(O)cc(O)c4c3=O)cc2)OC1(C)C` (stereo not shown) [NP 5, 6-(4-(5,7-dihydroxy-4-oxo-4H-chromen-3-yl)phenoxy)-5-hydroxy-3-methoxy-2,2-dimethyl-tetrahydro-2H-pyran-4-yl carbamate], for which the IC50 was 49 ± 3 µM at SIRT1 (setting [7]), 49 ± 3 µM at SIRT1 (setting [5]) and 68 ± 4 µM at SIRT1 (setting [6]).
Take `CC(C)CC[C@@H](O)[C@@H](C)[C@H]1CC[C@H]2[C@@H]3CC=C4C[C@@H](O)CC[C@]4(C)[C@H]3CC[C@]12C` [22R, 22(R)-hydroxycholesterol]: the EC50 in assay [4] (LXRα reporter gene activation) came to 13.3 µM. The Efficacy in assay [4] (reporter gene transcription vs. T09) worked out at 4%.
